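Each compound was tested at five concentrations against cells in 96-well plates for 48 hours. GI50 is the concentration that inhibits growth by half. TGI: total growth inhibition.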
Experiments:
Experiment in all cases: NCI-60 cell line screen, 48 h
MDA-MB-231 breast = system: MDA-MB-231 breast
SNB-75 CNS = system: SNB-75 CNS
KM12 colon = system: KM12 colon
NCI-H226 lung = system: NCI-H226 lung
HS 578T breast = system: HS 578T breast
MDA-MB-435 = system: MDA-MB-435
EKVX NSCLC = system: EKVX NSCLC
A549 NSCLC = system: A549 NSCLC
NCI-H460 lung = system: NCI-H460 lung
SF-268 CNS = system: SF-268 CNS

Row | SMILES | GI50 (MDA-MB-231 breast) [nM] | TGI (MDA-MB-231 breast) [µM] | GI50 (SNB-75 CNS) [µM] | TGI (SNB-75 CNS) [µM] | GI50 (KM12 colon) [µM] | TGI (KM12 colon) [µM] | GI50 (NCI-H226 lung) [nM] | TGI (NCI-H226 lung) [µM] | GI50 (HS 578T breast) [nM] | TGI (HS 578T breast) [µM] | GI50 (MDA-MB-435) [nM] | TGI (MDA-MB-435) [µM] | GI50 (EKVX NSCLC) [nM] | TGI (EKVX NSCLC) [µM] | GI50 (A549 NSCLC) [µM] | TGI (A549 NSCLC) [µM] | GI50 (NCI-H460 lung) [µM] | TGI (NCI-H460 lung) [µM] | GI50 (SF-268 CNS) [nM] | TGI (SF-268 CNS) [µM]
1 | CS(=O)(=O)CCNCc1nc(-c2ccc3ncnc(Nc4ccc(F)c(Cl)c4)c3c2)cs1 | 23600 | > 25 | > 18.3 | > 25 | 21.1 | > 25 | > 18100 | > 25 | 15900 | > 25 | 18000 | > 25 | 92.7 | > 25 | 15.8 | > 25 | 18.7 | > 25 | > 17900 | > 25
2 | C=C1C(=O)O[C@H]2[C@H]1CC/C(COC(=O)c1cc3cc(F)ccc3[nH]1)=C\CC[C@@]1(C)O[C@@H]21 | 1590 | 3.5 | 11.1 | 23.9 | 1.98 | 5.06 | 1760 | 3.52 | 2950 | 18.8 | 1500 | 2.96 | 1580 | 3.71 | 3.08 | 8.73 | 3.04 | 11.5 | 1620 | 3.3
3 | COc1ccc2c(c1)[nH]c(=O)c1c3cc(C)c(C)cc3cn21 | 29.1 | 1.53 | < 0.01 | 4.37 | 0.0292 | 0.109 | 389 | 21.7 | < 10 | – | < 10 | – | 56.3 | 4.67 | < 0.0185 | 1.32 | < 0.018 | 1.02 | < 10 | 1.45
4 | COc1ccc2c(c1)/C(=C\c1c(C)nc3sc(C)cn13)C(=O)N2C | 4590 | 65 | 5.88 | 51.2 | 4.87 | 43.4 | 2740 | 15.9 | 1830 | 5.4 | 1510 | 5.72 | 16700 | 73.8 | 30.7 | > 100 | 3.54 | 36.6 | 4620 | 39
5 | C=C1C(=O)O[C@H]2[C@H]1CC/C(Cn1cc(CNC(=O)Cc3cn(C(=O)c4ccc(Cl)cc4)c4ccc(OC)cc34)nn1)=C\CC[C@@]1(C)O[C@@H]21 | 1580 | 3.12 | 1.54 | 4.02 | 2.78 | 7.23 | 1760 | 3.41 | 2610 | 6.78 | 1710 | 3.45 | 2290 | 7.33 | 12.7 | 29.6 | 3.86 | 13.2 | 1700 | 3.52
6 | Cc1ccc(CNc2c3ccccc3nc3ccccc23)cc1 | 1800 | 4.52 | 0.402 | 6.8 | 3.4 | 12.9 | 1870 | 5.12 | 2460 | 6.6 | 1630 | 3.1 | 2060 | 8.04 | 1.94 | 5.05 | 2.02 | 5.26 | 2980 | 11.3
